Columns and labels:
[1] = molecular target: T1, Aurora kinase A (Homo sapiens) (UniProt O14965); assay: Aurora A (h) Upstate kinase activity assay; settings: Compound concentration 10.0 uM
T1 sequence (whole entry): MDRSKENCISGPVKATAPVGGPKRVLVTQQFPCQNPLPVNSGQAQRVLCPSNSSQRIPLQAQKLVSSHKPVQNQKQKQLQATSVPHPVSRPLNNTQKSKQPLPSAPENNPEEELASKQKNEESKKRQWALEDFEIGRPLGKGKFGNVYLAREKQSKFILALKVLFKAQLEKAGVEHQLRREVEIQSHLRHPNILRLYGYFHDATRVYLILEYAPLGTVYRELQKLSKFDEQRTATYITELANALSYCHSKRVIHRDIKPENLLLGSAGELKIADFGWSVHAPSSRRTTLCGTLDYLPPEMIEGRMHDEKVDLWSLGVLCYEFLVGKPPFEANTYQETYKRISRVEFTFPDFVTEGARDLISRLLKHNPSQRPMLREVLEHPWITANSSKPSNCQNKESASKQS

[2] = molecular target: T2, Serine/threonine-protein kinase Chk1 (Homo sapiens) (UniProt O14757); assay: CHK1 (h) Upstate kinase activity assay; settings: Compound concentration 10.0 uM
T2 sequence (whole entry): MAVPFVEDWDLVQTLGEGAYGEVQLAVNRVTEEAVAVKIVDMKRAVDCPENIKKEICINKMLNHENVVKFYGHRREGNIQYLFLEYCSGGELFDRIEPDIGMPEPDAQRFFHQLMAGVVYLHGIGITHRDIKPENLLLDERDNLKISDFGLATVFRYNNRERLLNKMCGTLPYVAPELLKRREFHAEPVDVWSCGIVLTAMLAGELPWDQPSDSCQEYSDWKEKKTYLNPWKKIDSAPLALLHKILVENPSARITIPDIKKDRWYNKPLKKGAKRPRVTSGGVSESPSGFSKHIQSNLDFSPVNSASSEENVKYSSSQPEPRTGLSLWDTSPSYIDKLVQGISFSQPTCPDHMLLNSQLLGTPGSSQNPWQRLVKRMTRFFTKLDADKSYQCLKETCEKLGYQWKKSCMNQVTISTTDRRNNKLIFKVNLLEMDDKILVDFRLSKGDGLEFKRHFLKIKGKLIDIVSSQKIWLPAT

[3] = molecular target: T3, Ephrin type-B receptor 4 (Homo sapiens) (UniProt P54760); assay: EphB4 (h) Upstate kinase activity assay; settings: Compound concentration 10.0 uM
T3 sequence (whole entry): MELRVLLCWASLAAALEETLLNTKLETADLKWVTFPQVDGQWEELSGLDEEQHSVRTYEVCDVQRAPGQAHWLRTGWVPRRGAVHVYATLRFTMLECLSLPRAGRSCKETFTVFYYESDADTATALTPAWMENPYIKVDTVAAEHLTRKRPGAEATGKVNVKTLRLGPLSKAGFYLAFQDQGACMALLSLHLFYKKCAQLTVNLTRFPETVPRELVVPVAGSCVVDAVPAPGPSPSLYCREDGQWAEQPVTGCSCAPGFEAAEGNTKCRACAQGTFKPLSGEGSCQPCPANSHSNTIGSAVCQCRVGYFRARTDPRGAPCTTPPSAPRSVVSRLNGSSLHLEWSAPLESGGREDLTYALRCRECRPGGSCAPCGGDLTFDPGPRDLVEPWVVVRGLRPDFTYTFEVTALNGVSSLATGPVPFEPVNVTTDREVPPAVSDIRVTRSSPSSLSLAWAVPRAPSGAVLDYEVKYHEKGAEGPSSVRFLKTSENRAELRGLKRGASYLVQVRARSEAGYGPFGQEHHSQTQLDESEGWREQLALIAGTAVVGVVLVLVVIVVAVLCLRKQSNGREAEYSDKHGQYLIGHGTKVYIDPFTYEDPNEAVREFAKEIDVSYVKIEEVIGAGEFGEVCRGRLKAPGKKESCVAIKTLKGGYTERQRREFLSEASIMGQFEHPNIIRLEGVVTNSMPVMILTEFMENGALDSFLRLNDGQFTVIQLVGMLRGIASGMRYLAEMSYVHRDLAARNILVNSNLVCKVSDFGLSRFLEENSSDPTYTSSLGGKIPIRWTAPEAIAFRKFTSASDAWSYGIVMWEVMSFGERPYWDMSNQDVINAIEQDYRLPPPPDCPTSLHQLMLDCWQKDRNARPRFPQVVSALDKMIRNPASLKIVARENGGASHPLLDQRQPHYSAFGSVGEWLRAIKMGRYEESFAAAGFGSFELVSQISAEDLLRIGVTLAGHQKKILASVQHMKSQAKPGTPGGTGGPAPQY

[4] = molecular target: Mitogen-activated protein kinase 11 (Homo sapiens) (UniProt Q15759); assay: SAPK2b (h) Upstate kinase activity assay; settings: Compound concentration 10.0 uM
[5] = molecular target: T4, Serine/threonine-protein kinase Sgk1 (Homo sapiens) (UniProt O00141); assay: SGK (h) Upstate kinase activity assay; settings: Compound concentration 10.0 uM
T4 sequence (whole entry): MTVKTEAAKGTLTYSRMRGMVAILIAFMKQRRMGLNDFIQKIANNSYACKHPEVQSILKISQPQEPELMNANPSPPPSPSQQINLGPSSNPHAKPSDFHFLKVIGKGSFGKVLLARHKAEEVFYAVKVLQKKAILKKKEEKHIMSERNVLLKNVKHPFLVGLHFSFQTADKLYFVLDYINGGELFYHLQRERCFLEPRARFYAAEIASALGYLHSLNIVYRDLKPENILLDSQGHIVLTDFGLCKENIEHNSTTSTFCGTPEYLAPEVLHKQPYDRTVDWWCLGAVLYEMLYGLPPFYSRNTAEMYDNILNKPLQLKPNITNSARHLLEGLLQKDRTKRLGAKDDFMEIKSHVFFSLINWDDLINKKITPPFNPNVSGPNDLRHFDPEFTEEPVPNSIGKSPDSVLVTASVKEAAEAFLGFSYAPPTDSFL

[6] = tested on: MCF7; assay: Breast MCF-7 cell line MDS Pharma Services Proliferation Assay; assay type: functional, cell-based, Homo sapiens
[7] = tested on: Hep 3B2; assay: Liver Hep 3B cell line MDS Pharma Services Proliferation Assay; assay type: functional, cell-based, Homo sapiens
[8] = tested on: PC-3; assay: Prostate PC-3 cell line MDS Pharma Services Proliferation Assay; assay type: functional, cell-based, Homo sapiens
[9] = tested on: Epidermal growth factor receptor (Homo sapiens), P00533 [UNDEFINED MUTATION]; settings: Compound concentration 100.0 nM
[10] = molecular target: Sodium-dependent noradrenaline transporter (Homo sapiens) (UniProt P23975); settings: Compound concentration 10.0 uM
Chain of Sodium-dependent noradrenaline transporter (Homo sapiens) (P23975 whole entry): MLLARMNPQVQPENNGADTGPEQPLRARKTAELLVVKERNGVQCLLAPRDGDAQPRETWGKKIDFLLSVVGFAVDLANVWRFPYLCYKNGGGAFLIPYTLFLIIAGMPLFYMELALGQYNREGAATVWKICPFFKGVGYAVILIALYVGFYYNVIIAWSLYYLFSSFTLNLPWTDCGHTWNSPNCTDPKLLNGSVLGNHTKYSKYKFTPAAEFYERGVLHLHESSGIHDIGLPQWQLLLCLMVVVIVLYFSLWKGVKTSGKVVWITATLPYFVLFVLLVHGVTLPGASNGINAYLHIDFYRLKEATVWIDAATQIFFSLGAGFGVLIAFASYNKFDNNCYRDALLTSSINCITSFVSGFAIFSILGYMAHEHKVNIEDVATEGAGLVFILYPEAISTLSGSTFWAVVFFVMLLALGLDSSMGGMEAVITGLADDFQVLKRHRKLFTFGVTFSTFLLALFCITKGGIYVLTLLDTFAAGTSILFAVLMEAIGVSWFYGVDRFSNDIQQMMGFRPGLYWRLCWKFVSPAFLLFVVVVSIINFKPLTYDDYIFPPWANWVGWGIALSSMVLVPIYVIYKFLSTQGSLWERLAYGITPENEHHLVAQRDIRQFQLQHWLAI

Chain of Epidermal growth factor receptor (Homo sapiens), P00533 [UNDEFINED MUTATION] (P00533 whole entry, looked up, change not shown): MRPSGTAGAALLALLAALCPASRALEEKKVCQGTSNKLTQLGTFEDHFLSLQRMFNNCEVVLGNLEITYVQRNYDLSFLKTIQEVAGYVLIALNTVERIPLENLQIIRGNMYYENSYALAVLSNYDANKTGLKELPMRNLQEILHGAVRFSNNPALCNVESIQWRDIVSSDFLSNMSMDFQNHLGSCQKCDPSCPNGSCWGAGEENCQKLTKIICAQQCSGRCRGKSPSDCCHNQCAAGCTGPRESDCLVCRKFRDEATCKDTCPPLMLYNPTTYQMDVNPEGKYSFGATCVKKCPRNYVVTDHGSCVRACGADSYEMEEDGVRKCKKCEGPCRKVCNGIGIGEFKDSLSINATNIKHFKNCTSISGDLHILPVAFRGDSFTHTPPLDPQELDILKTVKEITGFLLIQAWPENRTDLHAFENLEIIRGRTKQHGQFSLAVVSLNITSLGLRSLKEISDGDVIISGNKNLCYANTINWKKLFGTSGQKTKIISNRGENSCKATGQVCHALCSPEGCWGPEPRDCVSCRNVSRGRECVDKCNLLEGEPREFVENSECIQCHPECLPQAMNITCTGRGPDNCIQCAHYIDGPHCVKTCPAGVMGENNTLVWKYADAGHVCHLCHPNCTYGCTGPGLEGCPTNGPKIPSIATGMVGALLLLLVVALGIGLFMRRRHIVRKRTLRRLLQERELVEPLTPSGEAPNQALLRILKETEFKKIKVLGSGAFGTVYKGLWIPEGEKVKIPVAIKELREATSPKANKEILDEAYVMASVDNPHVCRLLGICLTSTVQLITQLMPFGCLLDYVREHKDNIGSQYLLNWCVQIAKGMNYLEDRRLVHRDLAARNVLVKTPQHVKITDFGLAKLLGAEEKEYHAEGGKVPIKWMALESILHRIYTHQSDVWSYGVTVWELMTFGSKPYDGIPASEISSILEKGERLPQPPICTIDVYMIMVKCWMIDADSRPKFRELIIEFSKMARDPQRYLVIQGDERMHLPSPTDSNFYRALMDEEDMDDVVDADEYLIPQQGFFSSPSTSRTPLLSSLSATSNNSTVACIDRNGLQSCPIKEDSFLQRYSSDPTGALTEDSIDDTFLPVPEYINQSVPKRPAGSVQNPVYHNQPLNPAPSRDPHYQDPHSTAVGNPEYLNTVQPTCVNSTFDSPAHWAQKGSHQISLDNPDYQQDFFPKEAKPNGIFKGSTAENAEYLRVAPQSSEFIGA
Chain of Mitogen-activated protein kinase 11 (Homo sapiens) (Q15759 whole entry): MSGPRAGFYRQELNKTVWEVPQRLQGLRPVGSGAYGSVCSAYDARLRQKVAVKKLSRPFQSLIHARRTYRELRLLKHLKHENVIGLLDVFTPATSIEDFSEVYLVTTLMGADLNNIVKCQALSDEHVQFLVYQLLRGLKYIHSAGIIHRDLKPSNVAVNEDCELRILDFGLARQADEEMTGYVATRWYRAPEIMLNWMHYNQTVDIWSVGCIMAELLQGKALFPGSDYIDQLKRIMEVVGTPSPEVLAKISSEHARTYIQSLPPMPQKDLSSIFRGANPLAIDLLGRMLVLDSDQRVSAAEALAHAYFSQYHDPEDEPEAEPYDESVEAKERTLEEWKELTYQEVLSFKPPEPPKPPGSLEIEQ

With `Cc1c[nH]c2nccc(Oc3c(F)cc(Nc4cc(Cl)nc(N)n4)cc3F)c12` [BAY-549] the inhibition [1] was 77%, the inhibition [2] was 9% and the inhibition [3] was -9%. It also gave an inhibition [4] of 1%, an inhibition [5] of 76% and a TGI ([6]; Homo sapiens, MCF7) greater than 100 µM. For the same compound, the CC50 ([6]; Homo sapiens, MCF7, read-out: LC50 (the source's name)) was greater than 100 µM, the “Mean % growth (n = 2) for 1.0 µM probe concentration” value ([6]; ± SEM 1 % growth) was 87% and the “Mean % growth (n = 2) for 10.0 µM probe concentration” value ([6]; ± SEM 2 % growth) was 57%. For the same compound, the “Mean % growth (n = 2) for 0.01 µM probe concentration” value ([6]; ± SEM 3 % growth) was 92%, the “Mean % growth (n = 2) for 100.0 µM probe concentration” value ([6]; ± SEM 4 % growth) was 6% and the “Mean % growth (n = 2) for 0.1 µM probe concentration” value ([6]; ± SEM 9 % growth) was 89%. For the same compound, the “Mean % growth (n = 2) for 10.0 µM probe concentration” value [7] was 11%, the IC50 ([7]; Homo sapiens, Hep3B) was 1.3 µM and the TGI ([7]; Homo sapiens, Hep3B) was 45 µM. The CC50 ([7]; Homo sapiens, Hep3B, read-out: LC50 (the source's name)) was greater than 100 µM, the “Mean % growth (n = 2) for 0.1 µM probe concentration” value ([7]; ± SEM 3 % growth) was 82% and the “Mean % growth (n = 2) for 100.0 µM probe concentration” value ([7]; ± SEM 5 % growth) was -4%. The “Mean % growth (n = 2) for 1.0 µM probe concentration” value ([7]; ± SEM 6 % growth) was 51%, the “Mean % growth (n = 2) for 0.01 µM probe concentration” value ([7]; ± SEM 8 % growth) was 90% and the IC50 ([8]; Homo sapiens, PC-3) was 9.4 µM. For the same compound, the TGI ([8]; Homo sapiens, PC-3) was greater than 100 µM, the CC50 ([8]; Homo sapiens, PC-3, read-out: LC50 (the source's name)) was greater than 100 µM and the “Mean % growth (n = 2) for 10.0 µM probe concentration” value ([8]; ± SEM 1 % growth) was 48%. For the same compound, the “Mean % growth (n = 2) for 0.01 µM probe concentration” value ([8]; ± SEM 2 % growth) was 97%, the “Mean % growth (n = 2) for 1.0 µM probe concentration” value ([8]; ± SEM 3 % growth) was 58% and the “Mean % growth (n = 2) for 100.0 µM probe concentration” value ([8]; ± SEM 3 % growth) was 29%. For the same compound, the “Mean % growth (n = 2) for 0.1 µM probe concentration” value ([8]; ± SEM 5 % growth) was 102%.
`Cn1cc(Cl)c2c(Oc3c(F)cc(Nc4cc(Cl)nc(N)n4)cc3F)ccnc21` [BAY-4900] was tested, and the residual activity [9] was 94% and the inhibition [10] was 3.14%.
